Test results reported in US8173808B2, “Substituted naphthalenyl-pyrimidine compounds” (ArQule, Inc., priority 2009, dated 2012).

Columns and labels:
[1] = molecular target: full length inactive AKT1 protein (Homo sapiens, UniProt P31749); test: AKT activity; thermal shift binding assay; details: class symbol for inhibition
Procedure: Aliquots of compounds in DMSO (1 μL @ 375 μM) were placed in the V bottom 96 well PCR plate, and incubated for 30 minutes with 24 μL of AKT1 protein in 25 mM TRIS buffer pH 7.5, 100 mM NaCl, 0.1% 2-mercaptoethanol, pre-mixed with environmentally sensitive fluorescent dye Sypro Orange (12.5×). The plates were centrifuged for […] @ 2000 rpm and 25° C. before the analysis on the IQ5 Real time PCR machine (Biorad). The thermal stability of the protein-ligand complex was monitored by changes in Sypro Orange fluorescence while subjecting the binding mixture to a temperature gradient of 30 to 75° C. at 1° C./min heating rate. Shifts in the protein melting temperature (ΔTm) greater than 0.6° C. compared to the protein alone were indicative of the inhibitor binding. Dissociation constants (Kd's) for the inhibitors were calculated from the melting curves as described in Mei-Chu-Lo et al., Anal.Biochem., 332: 153, 2004.

FGFR2 kinase = FGFR2 kinase fluorescent ELISA assay; assay type: biochemical; details: class symbol for inhibition
Procedure: A fluorescent ELISA assay was developed to identify and characterize inhibitors of FGFR2 kinase. This heterogeneous assay utilizes a biotinylated peptide with a tyrosine motif as a substrate and an anti-phospho-tyrosine antibody to measure phosphorylation of the substrate. The reaction is initiated by adding test compound, 37 uM Pyk2 substrate (Midwest Biotech, cat. #MBT2383) and 12.5 μM ATP (Roche, cat. #11 140 965 001), and 0.5 μM FGFR2 enzyme (Millipore, cat. #14-742) sequentially to a non-binding polypropylene V-well plate. All reagents are in assay buffer consisting of: 50 mM Tris-HCL, 0.02 mg/mL BSA, 10 mM MgCl2, 0.1 mM Na3VO4, 1 mM EGTA, 75 μM ATP, 0.01% NP-40, 2 mM DTT, 10% Glycerol. The reaction is incubated for 60 minutes. As the reaction proceeds, FGFR2 phosphorylates tyrosines in the peptide. The reaction mixture is then moved to a blocked streptavidin coated Nunc Maxisorb plate (coated with 100 ng streaptavidin from Pierce (cat #15-124) per well) allowing for the capture of the biotinylated peptide. Peptide is captured for 30 minutes at room temperature, the phosphorylation of peptide continues during this phase. The reaction is stopped by washing the Streptavidin plate 6 times with TBST. Phosphorylated peptide is detected by adding anti-phospho tyrosine antibody (purchased from Cell Signaling, cat. #9411, diluted 1:3000), unbound antibody is removed by washing 6 times with TBST. Secondary detection is performed using Alkaline Phosphatase tagged goat anti-mouse antibody (purchased from Pierce, cat. #31320, diluted 1:4000) for one hour. Unbound secondary antibody is removed by washing 6 times with TBST.
The fluorescent readout is initiated by the addition of Promega Attophos substrate (purchased from Promega; Kit catalog number: S1000, dilution=6 mg/10 mL), which when dephosphorylated by Alkaline phosphatase emits a fluorescent signal of […] when excited by a signal […]. This reading is done on the Perkin Elmer Envision system. Compounds which prevent the FGFR2 from phosphorylating the peptide result in a lower fluorescent signal. The signal is directly proportional to the activity of FGFR2 and compound inhibition of FGFR2 is monitored by a decrease in signal.

p70S6K = molecular target: T1, p70S6K (Homo sapiens, UniProt P23443); test: p70S6 kinase activity assay (HTRF); assay type: biochemical; details: class symbol for inhibition
T1 construct: purchased Upstate/Millipore
T1 sequence (P23443 whole entry): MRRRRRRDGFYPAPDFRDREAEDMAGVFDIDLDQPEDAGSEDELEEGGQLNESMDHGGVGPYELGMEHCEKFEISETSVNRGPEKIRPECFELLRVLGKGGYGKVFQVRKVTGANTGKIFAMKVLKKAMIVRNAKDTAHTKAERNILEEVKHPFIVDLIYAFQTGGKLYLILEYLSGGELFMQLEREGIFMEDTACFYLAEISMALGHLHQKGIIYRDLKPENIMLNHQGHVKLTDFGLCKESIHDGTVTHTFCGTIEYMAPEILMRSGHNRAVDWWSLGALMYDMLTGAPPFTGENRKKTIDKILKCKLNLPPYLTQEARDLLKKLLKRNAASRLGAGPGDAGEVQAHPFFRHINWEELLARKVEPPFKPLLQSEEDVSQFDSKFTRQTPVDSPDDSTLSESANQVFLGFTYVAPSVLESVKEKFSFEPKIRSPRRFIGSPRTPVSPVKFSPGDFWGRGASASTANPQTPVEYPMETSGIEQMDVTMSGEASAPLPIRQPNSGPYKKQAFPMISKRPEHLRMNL
Procedure: p70S6K activity was assayed using Cisbio's homogeneous time-resolved fluorescence (HTRF®) technology. The extent of phosphorylation of the biotinylated peptide substrate STK-S3 is determined using a phospho-specific STK Antibody labeled with Eu^3+-cryptate and streptavidin-XL665 that will bind to the biotin on the peptide. When in close proximity, excitation of the Eu^3+ cryptate donor fluorophore results in fluorescence resonance energy transfer (FRET) to the XL665 acceptor fluorophore and the emission signal from XL665 is measured.
The assay is performed using reagents from the HTRF® KinEASE™-STK kit from Cisbio including enzymatic buffer (50 mM HEPES pH7, 0.02% NaN3, 0.01% BSA, and 0.1 mM Na3VO4), STK-S3 substrate-biotin, Eu^3+-Cryptate labeled STK antibody, Streptavidin-XL665, and detection buffer (50 mM HEPES pH 7, 0.1% BSA, 0.8M KF, and 20 mM EDTA). Test inhibitors and controls (staurosporine) are prepared at 5× the desired final concentration. Test compound (5.0 μL), p70S6 (10 μL) from Upstate/Millipore (final concentration is 2.5 ng/well), and 10 μL substrate/ATP are added to each well of a reaction plate (Corning 96-well half-area solid black nonbinding surface plate). All reaction components are diluted in enzymatic buffer supplemented with 2 mM MgCl2 and 1 mM DTT. The final concentration of STK-S3 substrate is 500 nM and the final concentration of ATP is 100 μM.

full length inactive AKT1 protein, sequence (P31749 whole entry): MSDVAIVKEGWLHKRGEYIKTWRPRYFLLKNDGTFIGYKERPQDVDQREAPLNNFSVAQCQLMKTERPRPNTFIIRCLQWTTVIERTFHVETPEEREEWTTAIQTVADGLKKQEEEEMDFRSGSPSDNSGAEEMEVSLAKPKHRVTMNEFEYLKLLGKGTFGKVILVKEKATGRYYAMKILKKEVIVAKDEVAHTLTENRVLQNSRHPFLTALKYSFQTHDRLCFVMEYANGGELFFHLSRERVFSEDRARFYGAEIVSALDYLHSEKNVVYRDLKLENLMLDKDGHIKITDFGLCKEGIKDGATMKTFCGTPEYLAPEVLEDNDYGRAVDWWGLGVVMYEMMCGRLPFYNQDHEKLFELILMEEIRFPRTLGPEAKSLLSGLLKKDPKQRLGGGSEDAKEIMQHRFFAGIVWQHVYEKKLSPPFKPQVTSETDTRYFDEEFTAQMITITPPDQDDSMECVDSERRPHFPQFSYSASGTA

| Compound | AKT activity [1] | FGFR2 kinase activity (FGFR2 kinase) | p70S6 kinase activity (p70S6K) | melting point [°C] |
| --- | --- | --- | --- | --- |
| 2-acetamido-N-(3-(5-benzoyl-7H-pyrrolo[2,3-d]pyrimidin-4-ylamino)phenyl)acetamide [Compound 2a] | − (A negative sign indicates that inhibition is less than 25%) | − (A negative sign indicates that inhibition is less than 25%) | + (A positive sign indicates that inhibition is greater or equal to 25%) | – |
| 3-acetamido-N-(3-(5-benzoyl-7H-pyrrolo[2,3-d]pyrimidin-4-ylamino)phenyl)propanamide [Compound 4a] | − (A negative sign indicates that inhibition is less than 25%) | − (A negative sign indicates that inhibition is less than 25%) | + (A positive sign indicates that inhibition is greater or equal to 25%) | – |
| CNc1nccc(-c2cc(NC(=O)c3ccccc3)c3cc(OC)ccc3c2)n1 [Compound 185, N-{7-methoxy-3-[2-(methylamino)pyrimidin-4-yl]-1-naphthyl}benzamide] | – | – | – | 201 to 203 |
| CNc1nccc(-c2cc(NC(C)=O)c3cc(OC)ccc3c2)n1 [Compound 186, N-{7-methoxy-3-[2-(methylamino)pyrimidin-4-yl]-1-naphthyl}acetamide] | – | – | – | 234 to 235 |
| CNc1nccc(-c2cc(NC(=O)c3ccc(C(F)(F)F)cc3)c3cc(OC)ccc3c2)n1 [Compound 187, N-{7-methoxy-3-[2-(methylamino)pyrimidin-4-yl]-1-naphthyl}-4-(trifluoromethyl)benzamide] | – | – | – | 227 to 229 |
| CNc1nccc(-c2cc(NC(=O)c3ccc(OC)cc3)c3cc(OC)ccc3c2)n1 [Compound 188, 4-methoxy-N-{7-methoxy-3-[2-(methylamino)pyrimidin-4-yl]-1-naphthyl}benzamide] | – | – | – | 214 to 215 |
| CNc1nccc(-c2cc(NCCCNCCCN(C)C)c3cc(OC)ccc3c2)n1 [Compound 191, N′-[3-({7-methoxy-3-[2-(methylamino)pyrimidin-4-yl]-1-naphthyl}amino)propyl]-N,N-dimethylpropane-1,3-diamine] | – | – | – | 142 to 144 |
| CNc1nccc(-c2cc(NCCCSC(=N)N)c3cc(OC)ccc3c2)n1 [Compound 192, 3-({7-methoxy-3-[2-(methylamino)pyrimidin-4-yl]-1-naphthyl}amino)propyl imidothiocarbamate] | – | – | – | 94 to 97 |
| COc1cccc(CNc2nccc(-c3cc(N4CCN(CCCN5CCCCC5)CC4)c4cc(OC)ccc4c3)n2)c1 [Compound 194, 4-(6-methoxy-4-(4-(3-(piperidin-1-yl)propyl)piperazin-1-yl)naphthalen-2-yl)-N-(3-methoxybenzyl)pyrimidin-2-amine] | – | – | – | 63 to 75 |
| COc1cccc(CNc2nccc(-c3cc(N4CCN(CCCN(C)C)CC4)c4cc(OC)ccc4c3)n2)c1 [Compound 195, 4-(4-(4-(3-(dimethylamino)propyl)piperazin-1-yl)-6-methoxynaphthalen-2-yl)-N-(3-methoxybenzyl)pyrimidin-2-amine] | – | – | – | 70 to 75 |
| COc1cccc(CNc2nccc(-c3cc(N4CCN(CCCN5CCOCC5)CC4)c4cc(OC)ccc4c3)n2)c1 [Compound 196, 4-(6-methoxy-4-(4-(3-morpholinopropyl)piperazin-1-yl)naphthalen-2-yl)-N-(3-methoxybenzyl)pyrimidin-2-amine] | – | – | – | 65 to 73 |
| (4-(3-aminophenylamino)-7H-pyrrolo[2,3-d]pyrimidin-5-yl)(phenyl)methanone [Compound 5a] | + (A positive sign indicates that inhibition is greater or equal to 25%) | − (A negative sign indicates that inhibition is less than 25%) | + (A positive sign indicates that inhibition is greater or equal to 25%) | – |
| N-(3-(3-benzoyl-1H-indol-4-ylamino)phenyl)-3-(pyridin-3-yl)propanamide [Compound 1a] | + (A positive sign indicates that inhibition is greater or equal to 25%) | − (A negative sign indicates that inhibition is less than 25%) | + (A positive sign indicates that inhibition is greater or equal to 25%) | – |
| N-(3-(5-benzoyl-7-methyl-7H-pyrrolo[2,3-d]pyrimidin-4-ylamino)phenyl)acetamide [Compound 6a] | + (A positive sign indicates that inhibition is greater or equal to 25%) | − (A negative sign indicates that inhibition is less than 25%) | − (A negative sign indicates that inhibition is less than 25%) | – |
| N-(3-(5-benzoyl-7H-pyrrolo[2,3-d]pyrimidin-4-ylamino)phenyl)-2-(dimethylamino)acetamide [Compound 7a] | − (A negative sign indicates that inhibition is less than 25%) | − (A negative sign indicates that inhibition is less than 25%) | + (A positive sign indicates that inhibition is greater or equal to 25%) | – |
| N-(3-(5-benzoyl-7H-pyrrolo[2,3-d]pyrimidin-4-ylamino)phenyl)-4-(dimethylamino)butanamide [Compound 3a] | − (A negative sign indicates that inhibition is less than 25%) | − (A negative sign indicates that inhibition is less than 25%) | + (A positive sign indicates that inhibition is greater or equal to 25%) | – |
| N-(3-(5-benzoyl-7H-pyrrolo[2,3-d]pyrimidin-4-ylamino)phenyl)-5-(pyrrolidin-1-yl)pentanamide [Compound 8a] | + (A positive sign indicates that inhibition is greater or equal to 25%) | + (A positive sign indicates that inhibition is greater or equal to 25%) | − (A negative sign indicates that inhibition is less than 25%) | – |
| N-(3-(5-benzoyl-7H-pyrrolo[2,3-d]pyrimidin-4-ylamino)phenyl)acetamide [Compound 9a] | + (A positive sign indicates that inhibition is greater or equal to 25%) | − (A negative sign indicates that inhibition is less than 25%) | − (A negative sign indicates that inhibition is less than 25%) | – |
| N^1-(3-(5-benzoyl-7H-pyrrolo[2,3-d]pyrimidin-4-ylamino)phenyl)succinamide [Compound 10a] | − (A negative sign indicates that inhibition is less than 25%) | + (A positive sign indicates that inhibition is greater or equal to 25%) | − (A negative sign indicates that inhibition is less than 25%) | – |
